Values quoted from earlier work as cited in publication PMC9516332 (Frontiers in Oncology, 2022).
Like-named read-outs stand apart in the source and are kept apart here.

What was measured:
Details in all cases: cited from earlier work
[1] = target: panel of 255 wild-type kinases (Homo sapiens, UniProt P53355)
[2] = target: panel of 255 wild-type kinases (Homo sapiens, UniProt P17948)
[3] = target: panel of 255 wild-type kinases (Homo sapiens, UniProt P78362)
[4] = target: panel of 255 wild-type kinases (Homo sapiens, UniProt Q9H2G2)
[5] = target: T1, panel of 255 wild-type kinases (Homo sapiens, UniProt Q05513)
T1 sequence (Q05513 1-592): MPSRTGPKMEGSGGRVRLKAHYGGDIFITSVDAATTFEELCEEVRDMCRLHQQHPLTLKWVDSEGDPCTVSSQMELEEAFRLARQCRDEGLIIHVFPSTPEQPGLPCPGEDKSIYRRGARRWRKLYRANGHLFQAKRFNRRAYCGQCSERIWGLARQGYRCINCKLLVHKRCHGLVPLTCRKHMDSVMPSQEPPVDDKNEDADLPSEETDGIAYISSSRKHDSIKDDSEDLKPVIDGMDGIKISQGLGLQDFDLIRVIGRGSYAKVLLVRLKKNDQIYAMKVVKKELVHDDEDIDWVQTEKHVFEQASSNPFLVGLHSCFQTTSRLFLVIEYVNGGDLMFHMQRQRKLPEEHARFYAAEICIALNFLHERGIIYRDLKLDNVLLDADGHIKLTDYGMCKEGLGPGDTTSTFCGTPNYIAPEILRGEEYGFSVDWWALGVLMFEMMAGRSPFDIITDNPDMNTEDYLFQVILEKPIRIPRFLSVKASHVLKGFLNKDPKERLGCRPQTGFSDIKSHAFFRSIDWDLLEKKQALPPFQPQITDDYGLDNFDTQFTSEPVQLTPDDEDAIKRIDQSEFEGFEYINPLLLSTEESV

[6] = target: panel of 255 wild-type kinases (Homo sapiens, UniProt Q9NYA1)
[7] = target: T2, panel of 255 wild-type kinases (Homo sapiens, UniProt P54753)
T2 sequence (P54753 34-998): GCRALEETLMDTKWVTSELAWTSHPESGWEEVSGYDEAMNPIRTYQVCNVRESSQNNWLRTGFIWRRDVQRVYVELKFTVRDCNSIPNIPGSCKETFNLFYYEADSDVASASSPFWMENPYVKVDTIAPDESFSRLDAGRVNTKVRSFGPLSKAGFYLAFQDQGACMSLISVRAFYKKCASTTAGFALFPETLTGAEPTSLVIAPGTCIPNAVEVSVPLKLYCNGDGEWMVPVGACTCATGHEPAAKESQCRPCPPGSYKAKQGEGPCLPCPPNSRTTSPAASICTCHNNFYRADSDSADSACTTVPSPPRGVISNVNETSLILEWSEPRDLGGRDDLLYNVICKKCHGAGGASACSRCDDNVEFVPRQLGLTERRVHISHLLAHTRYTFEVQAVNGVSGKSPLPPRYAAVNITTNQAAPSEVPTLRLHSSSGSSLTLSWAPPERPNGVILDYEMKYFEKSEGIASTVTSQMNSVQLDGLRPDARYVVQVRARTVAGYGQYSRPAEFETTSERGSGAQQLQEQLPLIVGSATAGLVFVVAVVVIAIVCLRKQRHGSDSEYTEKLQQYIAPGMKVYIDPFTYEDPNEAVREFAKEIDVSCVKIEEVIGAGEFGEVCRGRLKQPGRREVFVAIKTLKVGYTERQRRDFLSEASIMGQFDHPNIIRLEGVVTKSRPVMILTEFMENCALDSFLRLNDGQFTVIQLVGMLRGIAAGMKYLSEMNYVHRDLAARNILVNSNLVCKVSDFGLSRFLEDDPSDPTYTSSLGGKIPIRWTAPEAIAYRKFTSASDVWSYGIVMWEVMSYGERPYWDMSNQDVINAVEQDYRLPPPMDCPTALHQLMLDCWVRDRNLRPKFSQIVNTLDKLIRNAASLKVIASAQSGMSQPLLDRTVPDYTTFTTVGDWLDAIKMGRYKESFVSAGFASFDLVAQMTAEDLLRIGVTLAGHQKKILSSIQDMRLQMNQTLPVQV

[8] = kinase DAPK1, 1 µmol/L single concentration, ref DOI: 10.1158/1535-7163.MCT-18-0877
[9] = kinase FLT1, 1 µmol/L single concentration, ref DOI: 10.1158/1535-7163.MCT-18-0877
[10] = kinase SRPK2, 1 µmol/L single concentration, ref DOI: 10.1158/1535-7163.MCT-18-0877
[11] = kinase SLK, 1 µmol/L single concentration, ref DOI: 10.1158/1535-7163.MCT-18-0877
[12] = kinase PKCζ, 1 µmol/L single concentration, ref DOI: 10.1158/1535-7163.MCT-18-0877
[13] = kinase SPHK1, 1 µmol/L single concentration, ref DOI: 10.1158/1535-7163.MCT-18-0877
[14] = kinase EPHB3, 1 µmol/L single concentration, ref DOI: 10.1158/1535-7163.MCT-18-0877
[15] = kinase DAPK1, 1 µmol/L single concentration, ref DOI: 10.1371/journal.pone.0092146
[16] = kinase FLT1, 1 µmol/L single concentration, ref DOI: 10.1371/journal.pone.0092146
[17] = kinase SRPK2, 1 µmol/L single concentration, ref DOI: 10.1371/journal.pone.0092146
[18] = kinase SLK, 1 µmol/L single concentration, ref DOI: 10.1371/journal.pone.0092146
[19] = kinase PKCζ, 1 µmol/L single concentration, ref DOI: 10.1371/journal.pone.0092146
[20] = kinase SPHK1, 1 µmol/L single concentration, ref DOI: 10.1371/journal.pone.0092146
[21] = kinase EPHB3, 1 µmol/L single concentration, ref DOI: 10.1371/journal.pone.0092146

Row | SMILES | %-inhibition at 1 µmol/L, DAPK1 [1, 8] | %-inhibition at 1 µmol/L, FLT1 [2, 9] | %-inhibition at 1 µmol/L, SRPK2 [3, 10] | %-inhibition at 1 µmol/L, SLK [4, 11] | %-inhibition at 1 µmol/L, PKCζ [5, 12] | %-inhibition at 1 µmol/L, SPHK1 [6, 13] | %-inhibition at 1 µmol/L, EPHB3 [7, 14] | %-inhibition at 1 µmol/L, DAPK1 [1, 15] | %-inhibition at 1 µmol/L, FLT1 [2, 16] | %-inhibition at 1 µmol/L, SRPK2 [3, 17] | %-inhibition at 1 µmol/L, SLK [4, 18] | %-inhibition at 1 µmol/L, PKCζ [5, 19] | %-inhibition at 1 µmol/L, SPHK1 [6, 20] | %-inhibition at 1 µmol/L, EPHB3 [7, 21] | other results
1 | O=C(c1ccc(F)c(F)c1Nc1ccc(I)cc1F)N1CC(O)([C@@H]2CCCCN2)C1 [cobimetinib] | -4% | -0.349% | 3% | 6% | 9% | -5.63% | 0.898% | – | – | – | – | – | – | – | –
2 | CC(C)(C)c1nc(-c2cccc(NS(=O)(=O)c3c(F)cccc3F)c2F)c(-c2ccnc(N)n2)s1 [dabrafenib] | – | – | – | – | – | – | – | -0.54% | 62% | 11% | 12% | 5% | -18% | 3% | –
3 | Cc1cc(Nc2ncc(Cl)c(Nc3ccccc3S(=O)(=O)C(C)C)n2)c(OC(C)C)cc1C1CCNCC1 [ceritinib] | 6% | 16% | 80% | 64% | 14% | -13% | -1% | – | – | – | – | – | – | – | –
4 | CCc1cc2c(cc1N1CCC(N3CCOCC3)CC1)C(C)(C)c1[nH]c3cc(C#N)ccc3c1C2=O [alectinib] | 58% | 2.23% | 93% | 12% | 10% | -10% | 2% | – | – | – | – | – | – | – | –
5 | CCCS(=O)(=O)Nc1ccc(F)c(C(=O)c2c[nH]c3ncc(-c4ccc(Cl)cc4)cc23)c1F [vemurafenib] | – | – | – | – | – | – | – | -0.115% | 25% | -2.2% | 43% | 13% | -11% | 2% | –
6 | COc1cc(N2CCC(N3CCN(C)CC3)CC2)ccc1Nc1ncc(Cl)c(Nc2ccccc2P(C)(C)=O)n1 [brigatinib] | – | – | – | – | – | – | – | – | – | – | – | – | – | – | %-inhibition at 1 µmol/L, DAPK1 [1]: 83%; %-inhibition at 1 µmol/L, FLT1 [2]: 74%; %-inhibition at 1 µmol/L, SRPK2 [3]: 10%; %-inhibition at 1 µmol/L, SLK [4]: 95%; %-inhibition at 1 µmol/L, PKCζ [5]: 5%; %-inhibition at 1 µmol/L, SPHK1 [6]: -4%; %-inhibition at 1 µmol/L, EPHB3 [7]: 0.727%
7 | CC(=O)Nc1cccc(-n2c(=O)n(C3CC3)c(=O)c3c(Nc4ccc(I)cc4F)n(C)c(=O)c(C)c32)c1 [trametinib] | – | – | – | – | – | – | – | -6% | -2.75% | -0.868% | -2.6% | 4.31% | -11% | -5.47% | –
8 | CC#CC(=O)N1CCC[C@H]1c1nc(-c2ccc(C(=O)Nc3ccccn3)cc2)c2c(N)nccn12 [acalabrutinib] | -17% | -1.14% | 0.686% | 1.61% | -5.44% | -3% | 1.64% | – | – | – | – | – | – | – | –
9 | C=CC(=O)Nc1cc(Nc2nccc(-c3cn(C)c4ccccc34)n2)c(OC)cc1N(C)CCN(C)C [osimertinib] | 29% | 9% | 3.77% | 17% | 9.52% | 9% | -0.0464% | – | – | – | – | – | – | – | –
10 | CO[C@@H]1[C@H](N(C)C(=O)c2ccccc2)C[C@H]2O[C@]1(C)n1c3ccccc3c3c4c(c5c6ccccc6n2c5c31)C(=O)NC4 [midostaurin] | 57% | 95% | 25% | 85% | -3.41% | -2.46% | 1.53% | – | – | – | – | – | – | – | –
11 | C=CC(=O)N1CCC[C@@H](n2nc(-c3ccc(Oc4ccccc4)cc3)c3c(N)ncnc32)C1 [ibrutinib] | -3.8% | 73% | 3% | 12% | 10% | -3.38% | 3% | – | – | – | – | – | – | – | –
12 | C[C@@H](Oc1cc(-c2cnn(C3CCNCC3)c2)cnc1N)c1c(Cl)ccc(F)c1Cl [crizotinib] | – | – | – | – | – | – | – | -4% | 53% | -2.33% | 100% | 9% | -14% | 5% | –
